Reference: US20230331719A1, “Pyrazolopyridine Compounds and Methods of Inhibiting IRE1 Using Same” (OPTIKIRA, LLC, priority 2020, published 2023)
Blank lines part the entries; values can stand above or below the molecule they belong to.

Tests used:
[1] = biological target: IRE1α RNase (Homo sapiens (Human), UniProt O75460); test: Inhibition of RNase activity of IRE1α; format: biochemical; conditions: 0.325 nM enzyme, 100 nM substrate, 20 minutes at room temperature
Method: The RNase reactions were performed in 384 well black ProxiPlate-384 Plus plates (PERKIN Elmer) using 50 mM Tris assay buffer with 0.5 mM MgCl2, 10 mM KCl, 0.03 % Tween, 2 mM DTT and 1% DMSO. Test compounds were prepared on the day of assay and dispensed using D300 digital dispenser as a 10-point ½ log dilution series in duplicate, normalized to a final DMSO concentration of […]. Test compounds were pre-incubated for 30 min at room temperature with IRE1α kinase (E31-11G from Signal Chem) in 2.5 µL of assay buffer. Then 2.5 µl of assay buffer containing substrate (5′ Alexa Fluor 647 - rCrArUrGrUrC rCrGrCrArGrCrGrCrArUrG - Iowa Black RQ quencher 3′) (SEQ ID NO:1) added, giving a final concentration of enzyme of 0.325 nM and of substrate of 100 nM. After 20 minutes incubation at room temperature the reactions were stopped by added 5 µL of 5 M urea, incubated at room temperature for 10 minutes and fluorescence measured on a plate reader (EnVision, PerkinElmer). IC50 values calculated by fitting a sigmoidal curve to percent inhibition of control versus compound concentration.

[2] = test system: XBP1; test: Cellular XBP1 splicing assay (NanoLuc luciferase reporter); format: cell-based; conditions: Homo sapiens; ARPE-19 cells stably expressing XBP1-nano-luciferase; thapsigargin 150 nM, 4 hour incubation
Method: ARPE-19 cells stably expressing XBP1 (a.a. 1-376) with nano-luciferase gene sequence linked so it is in frame when XBP1 is spliced, were cultured in F12 media, 10 % FBS, 0.044% sodium bicarbonate, 150 µg/ml hygromycin B and seeded for assays at 5,000 cells in 384 well plates in culture media without hygromycin B and incubated at 37° C./5% CO2. After overnight incubation test compounds were added to the cell plate in a 10-point ½ log dilution series in duplicate (final DMSO concentration 0.117 %). After further incubation of 30 minutes thapsigargin was added (final concentration 150 nM) and then another 4 hour incubation. A NanoLuc luciferase assay (Promega) was used according to the manufacturer’s instructions to detect the luciferase and luminescence measured on a luminometer (EnVision, PerkinElmer). IC50 values calculated by fitting a sigmoidal curve to percent inhibition of control of compound concentration.

[3] = biological target: IRE1α kinase (Homo sapiens (Human), UniProt O75460); test: Inhibition of kinase activity of IRE1α (ADP-Glo); format: biochemical; conditions: 5 nM IRE1α kinase, 100 µM ATP, 4 hours at room temperature
Method: The kinase reactions were performed in 384 well white ProxiPlate-384 Plus plates (PERKIN Elmer 6008280) using 25 mM MOPS assay buffer with 1 mM dithiothreitol, 25 mM MgCl2, 12.5 mM β-glycerophosphate, 5 mM EGTA, and 50 µg/mL BSA. Test compounds were prepared on the day of assay and dispensed using D300 digital dispenser as a 10-point ½ log dilution series in duplicate, normalized to a final DMSO concentration of 3%. Test compounds were pre-incubated for 30 min at room temperature with 10 nM IRE1α kinase (E31-11G from Signal Chem) in 2.5 µL of assay buffer and the reaction started by addition of 2.5 µL of ATP in assay buffer, to give a final ATP concentration of 100 µm and 5 nM IRE1α kinase. After 4 hours incubation at room temperature the reactions were stopped and the kinase activity determined using the ADP-Glo™ reagent from Promega, according to the manufacturer’s instructions. Luminescence was measured on a luminometer (EnVision, PerkinElmer) and IC50 values calculated by fitting a sigmoidal curve to percent inhibition of control versus Log10 of compound concentration.

IRE1α kinase, sequence (O75460 468-977): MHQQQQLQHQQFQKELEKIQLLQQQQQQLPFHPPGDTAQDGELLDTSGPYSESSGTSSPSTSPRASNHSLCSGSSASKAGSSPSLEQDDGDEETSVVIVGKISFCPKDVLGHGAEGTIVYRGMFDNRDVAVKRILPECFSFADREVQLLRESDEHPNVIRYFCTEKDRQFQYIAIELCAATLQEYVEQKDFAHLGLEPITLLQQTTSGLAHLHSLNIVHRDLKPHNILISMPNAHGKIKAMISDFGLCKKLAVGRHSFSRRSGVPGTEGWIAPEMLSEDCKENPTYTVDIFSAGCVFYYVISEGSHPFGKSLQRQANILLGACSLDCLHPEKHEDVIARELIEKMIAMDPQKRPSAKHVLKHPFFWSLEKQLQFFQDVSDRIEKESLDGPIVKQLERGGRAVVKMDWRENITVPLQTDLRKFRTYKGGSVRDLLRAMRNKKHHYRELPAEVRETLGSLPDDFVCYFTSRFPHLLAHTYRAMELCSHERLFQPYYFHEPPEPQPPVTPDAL
IRE1α RNase, sequence (O75460 468-977): as above

SMILES: COCCN[C@H]1CC[C@H](c2cnc(N)c3c(-c4cc(F)c(NS(=O)(=O)c5cc(OC(F)F)ccc5Cl)cc4F)nn(C(C)C)c32)CC1 [Compound A1, N-(4-(4-amino-1-isopropyl-7-((1r,4r)-4-((2-methoxyethyl)amino)cyclohexyl)-1H-pyrazolo[4,3-c]pyridin-3-yl)-2,5-difluorophenyl)-2-chloro-5-(difluoromethoxy)benzenesulfonamide]
IC50 [1]: 2.7 nM
IC50 [2]: 14.5 nM

SMILES: [2H]C([2H])([2H])Oc1ccc(F)c(S(=O)(=O)Nc2cc(F)c(-c3nn(C(C)C)c4c3c(N)ncc4[C@H]3CC[C@H](NCCOC)CC3)cc2F)c1 [Compound A2, N-(4-(4-amino-1-isopropyl-7-((1r,4r)-4-((2-methoxyethyl)amino)cyclohexyl)-1H-pyrazolo[4,3-c]pyridin-3-yl)-2,5-difluorophenyl)-2-fluoro-5-(methoxy-d3)benzenesulfonamide]
IC50 [1]: 4.8 nM
IC50 [2]: 12.2 nM

SMILES: COCCN[C@H]1CC[C@H](c2cnc(N)c3c(-c4cc(F)c(NS(=O)(=O)c5cc(OC(F)(F)F)ccc5Cl)cc4F)nn(C(C)C)c32)CC1 [Compound A3, N-(4-(4-amino-1-isopropyl-7-((1r,4r)-4-((2-methoxyethyl)amino)cyclohexyl)-1H-pyrazolo[4,3-c]pyridin-3-yl)-2,5-difluorophenyl)-2-chloro-5-(trifluoromethoxy)benzenesulfonamide]
IC50 [1]: 3.4 nM
IC50 [2]: 15 nM

SMILES: CC(C)n1nc(-c2cc(F)c(NS(=O)(=O)c3ccccc3F)cc2F)c2c(N)ncc([C@H]3CC[C@H](NCCOC(F)(F)F)CC3)c21 [Compound A8, N-(4-(4-amino-1-isopropyl-7-((1r,4r)-4-((2-(trifluoromethoxy)ethyl)amino)cyclohexyl)-1H-pyrazolo[4,3-c]pyridin-3-yl)-2,5-difluorophenyl)-2-fluorobenzenesulfonamide]
IC50 [1]: 17.9 nM
IC50 [2]: 39.3 nM

SMILES: CC(C)n1nc(-c2cc(F)c(NS(=O)(=O)Cc3ccccc3F)cc2F)c2c(N)ncc([C@H]3CC[C@H](N4CCOCC4)CC3)c21 [Compound A11, N-(4-(4-amino-1-isopropyl-7-((1r,4r)-4-morpholinocyclohexyl)-1H-pyrazolo[4,3-c]pyridin-3-yl)-2,5-difluorophenyl)-1-(2-fluorophenyl)methanesulfonamide]
IC50 [1]: 4.8 nM
IC50 [3]: 2.1 nM
IC50 [2]: 11.6 nM

SMILES: CC(C)n1nc(-c2cc(F)c(NS(=O)(=O)c3ccccc3F)cc2F)c2c(N)ncc([C@H]3CC[C@@H](N4CCOCC4)CC3)c21 [Compound A14, N-(4-(4-amino-1-isopropyl-7-((1s,4s)-4-morpholinocyclohexyl)-1H-pyrazolo[4,3-c]pyridin-3-yl)-2,5-difluorophenyl)-2-fluorobenzenesulfonamide]
IC50 [1]: 466 nM
IC50 [2]: 1650 nM

SMILES: CC(C)n1nc(-c2cc(F)c(NS(=O)(=O)c3cc(F)ccc3F)cc2F)c2c(N)ncc([C@H]3CC[C@H](N4CCOCC4)CC3)c21 [Compound A16, N-(4-(4-amino-1-isopropyl-7-((1r,4r)-4-morpholinocyclohexyl)-1H-pyrazolo[4,3-c]pyridin-3-yl)-2,5-difluorophenyl)-2,5-difluorobenzenesulfonamide]
IC50 [2]: 26.9 nM

SMILES: Cc1ccc(F)c(S(=O)(=O)Nc2cc(F)c(-c3nn(C(C)C)c4c3c(N)ncc4[C@H]3CC[C@H](NC[C@H](C)F)CC3)cc2F)c1 [Compound A23, N-(4-(4-amino-7-((1S,4r)-4-(((S)-2-fluoropropyl)amino)cyclohexyl)-1-isopropyl-1H-pyrazolo[4,3-c]pyridin-3-yl)-2,5-difluorophenyl)-2-fluoro-5-methylbenzenesulfonamide]
IC50 [3]: 1.3 nM

SMILES: Cc1ccc(F)c(S(=O)(=O)Nc2cc(F)c(-c3nn(C(C)C)c4c3c(N)ncc4[C@H]3CC[C@H](NC[C@@H](C)F)CC3)cc2F)c1 [Compound A24, N-(4-(4-amino-7-((1R,4r)-4-(((R)-2-fluoropropyl)amino)cyclohexyl)-1-isopropyl-1H-pyrazolo[4,3-c]pyridin-3-yl)-2,5-difluorophenyl)-2-fluoro-5-methylbenzenesulfonamide]
IC50 [3]: 0.893 nM

Continued by falling IC50 [2], values first:

IC50 [2]: 11.1 nM
SMILES: CC(C)n1nc(-c2cc(F)c(NS(=O)(=O)Cc3ccccc3Cl)cc2F)c2c(N)ncc([C@H]3CC[C@H](N4CCOCC4)CC3)c21 [Compound A19, N-(4-(4-amino-1-isopropyl-7-((1r,4r)-4-morpholinocyclohexyl)-1H-pyrazolo[4,3-c]pyridin-3-yl)-2,5-difluorophenyl)-1-(2-chlorophenyl)methanesulfonamide]

IC50 [2]: 7.5 nM
SMILES: CCOc1ccc(F)c(S(=O)(=O)Nc2cc(F)c(-c3nn(C(C)C)c4c3c(N)ncc4[C@H]3CC[C@H](NCC(C)F)CC3)cc2F)c1 (stereo partly shown) [Compound A9, N-(4-(4-amino-7-((1r,4r)-4-((2-fluoropropyl)amino)cyclohexyl)-1-isopropyl-1H-pyrazolo[4,3-c]pyridin-3-yl)-2,5-difluorophenyl)-5-ethoxy-2-fluorobenzenesulfonamide]

IC50 [2]: 7.2 nM
SMILES: CCOc1ccc(F)c(S(=O)(=O)Nc2cc(F)c(-c3nn(C(C)C)c4c3c(N)ncc4[C@H]3CC[C@H](N4CCOCC4)CC3)cc2F)c1 [Compound A15, N-(4-(4-amino-1-isopropyl-7-((1r,4r)-4-morpholinocyclohexyl)-1H-pyrazolo[4,3-c]pyridin-3-yl)-2,5-difluorophenyl)-5-ethoxy-2-fluorobenzenesulfonamide]

IC50 [1]: 3.1 nM
IC50 [2]: 6.8 nM
SMILES: COCCN[C@H]1CC[C@H](c2cnc(N)c3c(-c4cc(F)c(NS(=O)(=O)c5cc(C)ccc5F)cc4F)nn(C(C)C)c32)CC1 [Compound A5, N-(4-(4-amino-1-isopropyl-7-((1r,4r)-4-((2-methoxyethyl)amino)cyclohexyl)-1H-pyrazolo[4,3-c]pyridin-3-yl)-2,5-difluorophenyl)-2-fluoro-5-methylbenzenesulfonamide]

IC50 [2]: 6.7 nM
SMILES: CCOc1ccc(F)c(S(=O)(=O)Nc2cc(F)c(-c3nn(C(C)C)c4c3c(N)ncc4[C@H]3CC[C@H](NCC(C)(C)OC)CC3)cc2F)c1 [Compound A6, N-(4-(4-amino-1-isopropyl-7-((1r,4r)-4-((2-methoxy-2-methylpropyl)amino)cyclohexyl)-1H-pyrazolo[4,3-c]pyridin-3-yl)-2,5-difluorophenyl)-5-ethoxy-2-fluorobenzenesulfonamide]

IC50 [2]: 6.1 nM
SMILES: CCOc1ccc(F)c(S(=O)(=O)Nc2cc(F)c(-c3nn(C(C)C)c4c3c(N)ncc4[C@H]3CC[C@H](NC4CC(F)(F)C4)CC3)cc2F)c1 [Compound A7, N-(4-(4-amino-7-((1r,4r)-4-((3,3-difluorocyclobutyl)amino)cyclohexyl)-1-isopropyl-1H-pyrazolo[4,3-c]pyridin-3-yl)-2,5-difluorophenyl)-5-ethoxy-2-fluorobenzenesulfonamide]

IC50 [1]: 3.3 nM
IC50 [3]: 1.6 nM
IC50 [2]: 4.6 nM
SMILES: CC(C)n1nc(-c2cc(F)c(NS(=O)(=O)c3cc(Cl)ccc3Cl)cc2F)c2c(N)ncc([C@H]3CC[C@H](N4CCOCC4)CC3)c21 [Compound A10, N-(4-(4-amino-1-isopropyl-7-((1r,4r)-4-morpholinocyclohexyl)-1H-pyrazolo[4,3-c]pyridin-3-yl)-2,5-difluorophenyl)-2,5-dichlorobenzenesulfonamide]

IC50 [1]: 2.8 nM
IC50 [2]: 3.3 nM
SMILES: COCCN[C@H]1CC[C@H](c2cnc(N)c3c(-c4cc(F)c(NS(=O)(=O)c5cc(C)ccc5Cl)cc4F)nn(C(C)C)c32)CC1 [Compound A4, N-(4-(4-amino-1-isopropyl-7-((1r,4r)-4-((2-methoxyethyl)amino)cyclohexyl)-1H-pyrazolo[4,3-c]pyridin-3-yl)-2,5-difluorophenyl)-2-chloro-5-methylbenzenesulfonamide]
